Laboratory results taken from patent US10189838B2, “Aza-oxo-indoles for the treatment and prophylaxis of respiratory syncytial virus infection” (Hoffmann-La Roche Inc., priority 2013, dated 2019).

These compounds were tested on RSV Long strain (assay: Viral cytopathic effect (CPE) assay, RSV Long strain). Conditions: human respiratory syncytial virus, 144 h, cell viability after 6 days (Cell Counting kit-8).
Format: cell-based, Respiratory Syncytial Virus
Description: EC50: the concentration of a compound where 50% of its maximal protection effect against viral induced CPE is observed
LongStrain: an A subtype RSV strain obtained from ATCC with catalog number VR-26
To measure anti-RSV activity of compounds, 96-well plates are seeded with 6×10^3 cells per well in Dulbecco's modified Eagle's medium (DMEM) containing 10% fetal bovine serum (FBS). Cells are infected the next day with sufficient RSV Long strain (ATCC) to produce an approximately 80-90% cytopathic effect after 6 days, in the presence of serial half-log diluted compound in a total volume of […] per well. The viability of cells is assessed after 6 days using Cell Counting kit-8 (Dojindo Molecular Technologies). The absorbance at 450 nm and referenced at 630 nm is measured to determine 50% effective concentration (EC50)

For `CS(=O)(=O)CCn1c(CN2C(=O)C3(CCCC3)c3ccncc32)cc2cc(Cl)ccc21` [Example 3-2, 1′-({5-Chloro-1-[2-(methylsulfonyl)ethyl]-1H-indol-2-yl}methyl)spiro[cyclopentane-1,3′-pyrrolo[2,3-c]pyridin]-2′(1′H)-one], which EC50 is on record?
Its EC50 is 290 nM.

For `CS(=O)(=O)CCn1c(CN2C(=O)C3(CC3)c3ccncc32)cc2cc(Cl)ccc21` [Example 3-3, 1′-({5-Chloro-1-[2-(methylsulfonyl)ethyl]-1H-indol-2-yl}methyl)spiro[cyclopropane-1,3′-pyrrolo[2,3-c]pyridin]-2′(1′H)-one], which EC50 is on record?
Its EC50 is 18 nM.

For `CS(=O)(=O)CCCCn1c(CN2C(=O)C3(CC3)c3ccncc32)cc2cc(Cl)ccc21` [Example 4-1, 1′-({5-Chloro-1-[4-(methylsulfonyl)butyl]-1H-indol-2-yl}methyl)spiro[cyclopropane-1,3′-pyrrolo[2,3-c]pyridin]-2′(1′H)-one], which EC50 is on record?
The EC50 was 5.9 nM.

For `CS(=O)(=O)c1ccc(Cn2c(CN3C(=O)C4(CC4)c4ccncc43)cc3cc(Cl)ccc32)cc1` [Example 4-2, 1′-({5-Chloro-1-[4-(methylsulfonyl)benzyl]-1H-indol-2-yl}methyl)spiro[cyclopropane-1,3′-pyrrolo[2,3-c]pyridin]-2′(1′H)-one], which EC50 is on record?
Its EC50 is 275 nM.

`CS(=O)(=O)CCCn1c(CN2C(=O)C3(CC3)c3ccncc32)cc2cc(Cl)cnc21` [Example 4-3, 1′-({5-Chloro-1-[3-(methylsulfonyl)propyl]-1H-pyrrolo[2,3-b]pyridin-2-yl}methyl)spiro[cyclopropane-1,3′-pyrrolo[2,3-c]pyridin]-2′(1′H)-one] was tested. Which EC50 did it give?
The EC50 was 37.9 nM.

For `Cc1cnc2c(c1)cc(CN1C(=O)C3(CC3)c3ccncc31)n2CCS(C)(=O)=O` [Example 4-4, 1′-({5-Methyl-1-[2-(methylsulfonyl)ethyl]-1H-pyrrolo[2,3-b]pyridin-2-yl}methyl)spiro[cyclopropane-1,3′-pyrrolo[2,3-c]pyridin]-2′(1′H)-one], which EC50 is on record?
The EC50 was 64 nM.

`CS(=O)(=O)CCCCn1c(CN2C(=O)C3(CC3)c3ccncc32)cc2nc(Cl)ccc21` [Example 4-5, 1′-({5-Chloro-1-[4-(methylsulfonyl)butyl]-1H-pyrrolo[3,2-b]pyridin-2-yl}methyl)spiro[cyclopropane-1,3′-pyrrolo[2,3-c]pyridin]-2′(1′H)-one] was tested. Which EC50 did it give?
Its EC50 is 22.1 nM.

With `O=C1N(Cc2cc3nc(Cl)ccc3n2CCCS(=O)(=O)C2CC2)c2cnccc2C12CC2` [Example 4-6, 1′-({5-Chloro-1-[3-(cyclopropylsulfonyl)propyl]-1H-pyrrolo[3,2-b]pyridin-2-yl}methyl)spiro[cyclopropane-1,3′-pyrrolo[2,3-c]pyridin]-2′(1′H)-one] as the compound, how does the EC50 read?
The EC50 was 29 nM.

With `CS(=O)(=O)CCCCn1c(CN2C(=O)C3(CC3)c3ccncc32)cc2cc(Cl)ncc21` [Example 4-7, 1′-({5-Chloro-1-[4-(methylsulfonyl)butyl]-1H-pyrrolo[2,3-c]pyridin-2-yl}methyl)spiro[cyclopropane-1,3′-pyrrolo[2,3-c]pyridin]-2′(1′H)-one] as the compound, how does the EC50 read?
Its EC50 is 27 nM.

Which EC50 does the source give for `CN(Cc1ccccc1)S(=O)(=O)CCCn1c(CN2C(=O)C3(CC3)c3ccncc32)cc2cc(Cl)cnc21` [Example 4-8, N-Benzyl-3-{5-chloro-2-[(2′-oxospiro[cyclopropane-1,3′-pyrrolo[2,3-c]pyridin]-1′(2′H)-yl)methyl]-1H-pyrrolo[2,3-b]pyridin-1-yl}-N-methylpropane-1-sulfonamide] here?
The EC50 was 778 nM.

`O=C1N(Cc2cc3cc(Cl)ncc3n2CCCS(=O)(=O)C2CC2)c2cnccc2C12CC2` [Example 4-9, 1′-({5-Chloro-1-[3-(cyclopropylsulfonyl)propyl]-1H-pyrrolo[2,3-c]pyridin-2-yl}methyl)spiro[cyclopropane-1,3′-pyrrolo[2,3-c]pyridin]-2′(1′H)-one] was tested. Which EC50 did it give?
Its EC50 is 48.7 nM.

With `O=C1N(Cc2cc3cc(Cl)ncc3n2CCC2CSC2)c2cnccc2C12CC2` [Example 4-10, 1′-({5-Chloro-1[2-(thietan-3-yl)ethyl]-1H-pyrrolo[2,3-c]pyridin-2-yl}methyl)spiro[cyclopropane-1,3′-pyrrolo[2,3-c]pyridin]-2′(1′H)-one] as the compound, how does the EC50 read?
The EC50 was 74 nM.

For `O=C1N(Cc2cc3cc(Cl)ncc3n2CCC2CS(=O)(=O)C2)c2cnccc2C12CC2` [Example 4-11, 1′-({5-Chloro-1-[2-(1,1-dioxidothietan-3-yl)ethyl]-1H-pyrrolo[2,3-c]pyridin-2-yl}methyl)spiro[cyclopropane-1,3′-pyrrolo[2,3-c]pyridin]-2′(1′H)-one], which EC50 is on record?
The EC50 was 18 nM.

`CS(=O)(=O)CCCn1c(CN2C(=O)C3(CCC3)c3ccncc32)cc2cc(Cl)cnc21` [Example 4-12, 1′-({5-Chloro-1-[3-(methylsulfonyl)propyl]-1H-pyrrolo[2,3-b]pyridin-2-yl}methyl)spiro[cyclobutane-1,3′-pyrrolo[2,3-c]pyridin]-2′(1′H)-one] was tested. Which EC50 did it give?
The EC50 was 56.8 nM.

Which EC50 does the source give for `CS(=O)(=O)CCCn1c(CN2C(=O)C3(CC3)c3ccncc32)cc2cc(Cl)ncc21` [Example 4-13, 1′-({5-Chloro-1-[3-(methylsulfonyl)propyl]-1H-pyrrolo[2,3-c]pyridin-2-yl}methyl)spiro[cyclopropane-1,3′-pyrrolo[2,3-c]pyridin]-2′(1′H)-one] here?
The EC50 was 26 nM.

With `O=C1N(Cc2cc3nc(Cl)ccc3n2CCS(=O)(=O)C2CC2)c2cnccc2C12CC2` [Example 4-14, 1′-({5-Chloro-1-[2-(cyclopropylsulfonyl)ethyl]-1H-pyrrolo[3,2-b]pyridin-2-yl}methyl)spiro[cyclopropane-1,3′-pyrrolo[2,3-c]pyridin]-2′(1′H)-one] as the compound, how does the EC50 read?
Its EC50 is 72 nM.

How did the EC50 turn out when `CS(=O)(=O)CCCn1c(CN2C(=O)C3(CC3)c3ccncc32)cc2nc(Cl)ccc21` [Example 4-15, 1′-({5-Chloro-1-[3-(methylsulfonyl)propyl]-1H-pyrrolo[3,2-b]pyridin-2-yl}methyl)spiro[cyclopropane-1,3′-pyrrolo[2,3-c]pyridin]-2′(1′H)-one] was run?
Its EC50 is 18 nM.

With `CS(=O)(=O)CCCCn1c(CN2C(=O)C3(CC3)c3ccncc32)cc2cc(Cl)cnc21` [Example 4-16, 1′-({5-Chloro-1-[4-(methylsulfonyl)butyl]-1H-pyrrolo[2,3-b]pyridin-2-yl}methyl)spiro[cyclopropane-1,3′-pyrrolo[2,3-c]pyridin]-2′(1′H)-one] as the compound, how does the EC50 read?
Its EC50 is 54.9 nM.

How did the EC50 turn out when `C[S+]([O-])CCCn1c(CN2C(=O)C3(CC3)c3ccncc32)cc2cc(Cl)ccc21` (stereo not shown) [Example 5-1, 1′-({5-Chloro-1-[3-(methylsulfinyl)propyl]-1H-indol-2-yl}methyl)spiro[cyclopropane-1,3′-pyrrolo[2,3-c]pyridin]-2′(1′H)-one] was run?
Its EC50 is 9 nM.

Which EC50 does the source give for `CS(=O)(=O)CCn1c(CN2C(=O)C3(CC3)c3ccncc32)cc2cc(Cl)ncc21` [Example 5-2, 1′-({5-Chloro-1-[2-(methylsulfonyl)ethyl]-1H-pyrrolo[2,3-c]pyridin-2-yl}methyl)spiro[cyclopropane-1,3′-pyrrolo[2,3-c]pyridin]-2′(1′H)-one] here?
Its EC50 is 269 nM.

For `CCS(=O)(=O)CCn1c(CN2C(=O)C3(CC3)c3ccncc32)cc2nc(Cl)ccc21` [Example 6, 1′-({5-Chloro-1-[2-(ethylsulfonyl)ethyl]-1H-pyrrolo[3,2-b]pyridin-2-yl}methyl)spiro[cyclopropane-1,3′-pyrrolo[2,3-c]pyridin]-2′(1′H)-one], which EC50 is on record?
Its EC50 is 131 nM.

`CN(C)S(=O)(=O)CCCn1c(CN2C(=O)C3(CC3)c3ccncc32)cc2cc(Cl)ccc21` [Example 7-1, 3-{5-Chloro-2-[(2′-oxospiro[cyclopropane-1,3′-pyrrolo[2,3-c]pyridin]-1′(2′H)-yl)methyl]-1H-indol-1-yl}-N,N-dimethylpropane-1-sulfonamide] was tested. Which EC50 did it give?
Its EC50 is 7 nM.

Which EC50 does the source give for `CN(C)S(=O)(=O)CCCn1c(CN2C(=O)C3(CC3)c3ccncc32)cc2cc(Cl)cnc21` [Example 7-2, 3-{5-Chloro-2-[(2′-oxospiro[cyclopropane-1,3′-pyrrolo[2,3-c]pyridin]-1′(2′H)-yl)methyl]-1H-pyrrolo[2,3-b]pyridin-1-yl}-N,N-dimethylpropane-1-sulfonamide] here?
Its EC50 is 64 nM.

Which EC50 does the source give for `CN(C)S(=O)(=O)CCn1c(CN2C(=O)C3(CC3)c3ccncc32)cc2cc(Cl)ccc21` [Example 7-3, 2-{5-Chloro-2-[(2′-oxospiro[cyclopropane-1,3′-pyrrolo[2,3-c]pyridin]-1′(2′H)-yl)methyl]-1H-indol-1-yl}-N,N-dimethylethanesulfonamide] here?
Its EC50 is 23 nM.

For `O=C1N(Cc2cc3cc(Cl)ccc3n2CCCS(=O)(=O)N2CCOCC2)c2cnccc2C12CC2` [Example 7-4, 1′-({5-Chloro-1-[3-(morpholin-4-ylsulfonyl)propyl]-1H-indol-2-yl}methyl)spiro[cyclopropane-1,3′-pyrrolo[2,3-c]pyridin]-2′(1′H)-one], which EC50 is on record?
The EC50 was 14 nM.

`O=C1N(Cc2cc3cc(Cl)ccc3n2CCCS(=O)(=O)N2CCCC2)c2cnccc2C12CC2` [Example 7-5, 1′-({5-Chloro-1-[3-(pyrrolidin-1-ylsulfonyl)propyl]-1H-indol-2-yl}methyl)spiro[cyclopropane-1,3′-pyrrolo[2,3-c]pyridin]-2′(1′H)-one] was tested. Which EC50 did it give?
Its EC50 is 20 nM.

Which EC50 does the source give for `O=C1CN(S(=O)(=O)CCCn2c(CN3C(=O)C4(CC4)c4ccncc43)cc3cc(Cl)ccc32)CCN1` [Example 7-6, 1′-[(5-Chloro-1-{3-[(3-oxopiperazin-1-yl)sulfonyl]propyl}-1H-indol-2-yl)methyl]spiro[cyclopropane-1,3′-pyrrolo[2,3-c]pyridin]-2′(1′H)-one] here?
The EC50 was 7 nM.

`O=C1N(Cc2cc3cc(Cl)ccc3n2CCN2CCCS2(=O)=O)c2cnccc2C12CC2` [Example 7-7, 1′-({5-Chloro-1-[2-(1,1-dioxido-1,2-thiazolidin-2-yl)ethyl]-1H-indol-2-yl}methyl)spiro[cyclopropane-1,3′-pyrrolo[2,3-c]pyridin]-2′(1′H)-one] was tested. Which EC50 did it give?
The EC50 was 35 nM.
